According to the NIST ThermoML archive (doi:10.1016/j.tca.2016.06.023):

Experiments:
[1] = xn = mol fraction of the nth substance listed; conditions: 81.5 kPa, Liquid, Vibrating tube method
[2] = refractive index (Na D-line) (dimensionless); xn = mol fraction of the nth substance listed; conditions: 81.5 kPa, Liquid, Standard Abbe refractometry

Brc1ccccc1 [bromobenzene] + Clc1ccccc1
Conditions | mass density, [1] [kg/m3] | refractive index, [2]
293.15 K, x2 = 0 | 1495.52 | 1.55981
293.15 K, x2 = 0.1004 | 1457.81 | 1.55614
293.15 K, x2 = 0.2188 | 1413.03 | 1.55183
293.15 K, x2 = 0.3025 | 1381.12 | 1.54881
293.15 K, x2 = 0.4005 | 1343.53 | 1.54531
293.15 K, x2 = 0.5003 | 1304.91 | 1.54178
293.15 K, x2 = 0.6014 | 1265.46 | 1.53824
293.15 K, x2 = 0.6985 | 1227.24 | 1.53488
293.15 K, x2 = 0.7976 | 1187.96 | 1.53149
293.15 K, x2 = 0.899 | 1147.37 | 1.52802
303.15 K, x2 = 0 | 1481.97 | 1.55442
303.15 K, x2 = 0.1004 | 1444.57 | 1.55075
303.15 K, x2 = 0.2188 | 1400.11 | 1.54645
303.15 K, x2 = 0.3025 | 1368.44 | 1.54341
303.15 K, x2 = 0.4004 | 1331.07 | 1.5399
303.15 K, x2 = 0.5002 | 1292.73 | 1.53635
303.15 K, x2 = 0.6014 | 1253.57 | 1.5328
303.15 K, x2 = 0.6985 | 1215.65 | 1.52943
303.15 K, x2 = 0.7975 | 1176.65 | 1.52602
303.15 K, x2 = 0.8989 | 1136.37 | 1.52252
313.15 K, x2 = 0 | 1468.41 | 1.5489
313.15 K, x2 = 0.1004 | 1431.29 | 1.54525
313.15 K, x2 = 0.2188 | 1387.2 | 1.54094
313.15 K, x2 = 0.3025 | 1355.72 | 1.53791
313.15 K, x2 = 0.4004 | 1318.65 | 1.53439
313.15 K, x2 = 0.5002 | 1280.55 | 1.53084
313.15 K, x2 = 0.6014 | 1241.67 | 1.52729
313.15 K, x2 = 0.6985 | 1204.01 | 1.52391
313.15 K, x2 = 0.7975 | 1165.32 | 1.52049
313.15 K, x2 = 0.8989 | 1125.28 | 1.51697
323.15 K, x2 = 0 | 1454.85 | 1.54319
323.15 K, x2 = 0.1004 | 1418.03 | 1.53956
323.15 K, x2 = 0.2188 | 1374.22 | 1.53528
323.15 K, x2 = 0.3025 | 1342.96 | 1.53225
323.15 K, x2 = 0.4004 | 1306.14 | 1.52874
323.15 K, x2 = 0.5002 | 1268.32 | 1.5252
323.15 K, x2 = 0.6014 | 1229.71 | 1.52165
323.15 K, x2 = 0.6985 | 1192.33 | 1.51827
323.15 K, x2 = 0.7975 | 1153.89 | 1.51484
323.15 K, x2 = 0.8989 | 1114.13 | 1.51133
333.15 K, x2 = 0 | 1441.22 | 1.53742
333.15 K, x2 = 0.1004 | 1404.71 | 1.53383
333.15 K, x2 = 0.2188 | 1361.19 | 1.52957
333.15 K, x2 = 0.3025 | 1330.15 | 1.52657
333.15 K, x2 = 0.4004 | 1293.58 | 1.52308
333.15 K, x2 = 0.5002 | 1256.04 | 1.51956
333.15 K, x2 = 0.6014 | 1217.71 | 1.51602
333.15 K, x2 = 0.6985 | 1180.59 | 1.51266
333.15 K, x2 = 0.7975 | 1142.42 | 1.50924
333.15 K, x2 = 0.8989 | 1102.93 | 1.50574

Brc1ccccc1 [bromobenzene] + O=[N+]([O-])c1ccccc1
Conditions | mass density, 293.15 K [kg/m3] | mass density, 303.15 K [kg/m3] | mass density, 313.15 K [kg/m3] | mass density, 323.15 K [kg/m3] | mass density, 333.15 K [kg/m3] | refractive index, 293.15 K | refractive index, 303.15 K | refractive index, 313.15 K | refractive index, 323.15 K | refractive index, 333.15 K
[1], x1 = 0.0998 | 1232.31 | 1221.95 | 1211.59 | 1201.25 | 1190.87 | – | – | – | – | –
[1], x1 = 0.2013 | 1262.07 | 1251.35 | 1240.6 | 1229.85 | 1219.06 | – | – | – | – | –
[1], x1 = 0.2985 | 1290.56 | 1279.49 | 1268.39 | 1257.29 | 1246.12 | – | – | – | – | –
[1], x1 = 0.3968 | 1319.31 | 1307.88 | 1296.44 | 1284.95 | 1273.45 | – | – | – | – | –
[1], x1 = 0.505 | 1350.9 | 1339.07 | 1327.25 | 1315.36 | 1303.45 | – | – | – | – | –
[1], x1 = 0.5974 | 1377.81 | 1365.65 | 1353.48 | 1341.27 | 1329.01 | – | – | – | – | –
[1], x1 = 0.6987 | 1407.3 | 1394.76 | 1382.18 | 1369.62 | 1357.01 | – | – | – | – | –
[1], x1 = 0.8018 | 1437.33 | 1424.41 | 1411.45 | 1398.53 | 1385.53 | – | – | – | – | –
[1], x1 = 0.8963 | 1464.97 | 1451.69 | 1438.42 | 1425.19 | 1411.84 | – | – | – | – | –
[1], x1 = 1 | 1495.52 | 1481.97 | 1468.41 | 1454.85 | 1441.22 | – | – | – | – | –
[2], x1 = 0.0998 | – | – | – | – | – | 1.55317 | 1.54834 | 1.54352 | 1.53852 | 1.53345
[2], x1 = 0.2013 | – | – | – | – | – | 1.55394 | 1.54905 | 1.54416 | 1.53909 | 1.534
[2], x1 = 0.2985 | – | – | – | – | – | 1.55468 | 1.54973 | 1.54477 | 1.53962 | 1.53452
[2], x1 = 0.3968 | – | – | – | – | – | 1.55542 | 1.55041 | 1.54538 | 1.54015 | 1.53503
[2], x1 = 0.505 | – | – | – | – | – | 1.55622 | 1.55115 | 1.54603 | 1.54072 | 1.53559
[2], x1 = 0.5974 | – | – | – | – | – | 1.5569 | 1.55177 | 1.54658 | 1.5412 | 1.53605
[2], x1 = 0.6987 | – | – | – | – | – | 1.55764 | 1.55245 | 1.54718 | 1.54171 | 1.53654
[2], x1 = 0.8018 | – | – | – | – | – | 1.55838 | 1.55313 | 1.54777 | 1.54223 | 1.53704
[2], x1 = 0.8963 | – | – | – | – | – | 1.55906 | 1.55375 | 1.54831 | 1.54269 | 1.53748
[2], x1 = 1 | – | – | – | – | – | 1.55981 | 1.55442 | 1.5489 | 1.54319 | 1.53742

Clc1ccccc1 [chlorobenzene] + O=[N+]([O-])c1ccccc1
Conditions | mass density, 293.15 K [kg/m3] | mass density, 303.15 K [kg/m3] | mass density, 313.15 K [kg/m3] | mass density, 323.15 K [kg/m3] | mass density, 333.15 K [kg/m3] | refractive index, 293.15 K | refractive index, 303.15 K | refractive index, 313.15 K | refractive index, 323.15 K | refractive index, 333.15 K
[1], x1 = 0.1792 | 1186.15 | 1176.1 | 1166.03 | 1155.95 | 1145.83 | – | – | – | – | –
[1], x1 = 0.2018 | 1184.02 | 1173.95 | 1163.86 | 1153.76 | 1143.62 | – | – | – | – | –
[1], x1 = 0.2994 | 1174.79 | 1164.64 | 1154.47 | 1144.27 | 1134.02 | – | – | – | – | –
[1], x1 = 0.3967 | 1165.55 | 1155.32 | 1145.05 | 1134.75 | 1124.4 | – | – | – | – | –
[1], x1 = 0.491 | 1156.55 | 1146.24 | 1135.88 | 1125.49 | 1115.04 | – | – | – | – | –
[1], x1 = 0.5425 | 1151.59 | 1141.23 | 1130.83 | 1120.39 | 1109.89 | – | – | – | – | –
[1], x1 = 0.6479 | 1141.41 | 1130.96 | 1120.45 | 1109.9 | 1099.31 | – | – | – | – | –
[1], x1 = 0.7553 | 1130.91 | 1120.36 | 1109.75 | 1099.09 | 1088.41 | – | – | – | – | –
[1], x1 = 0.8748 | 1119.07 | 1108.4 | 1097.7 | 1086.93 | 1076.14 | – | – | – | – | –
[1], x1 = 1 | 1106.49 | 1095.71 | 1084.86 | 1073.96 | 1063.01 | – | – | – | – | –
[2], x1 = 0.1792 | – | – | – | – | – | 1.54704 | 1.54217 | 1.53739 | 1.53251 | 1.52761
[2], x1 = 0.2018 | – | – | – | – | – | 1.54638 | 1.5415 | 1.53671 | 1.53184 | 1.52695
[2], x1 = 0.2994 | – | – | – | – | – | 1.54356 | 1.53864 | 1.53383 | 1.52896 | 1.52412
[2], x1 = 0.3967 | – | – | – | – | – | 1.54078 | 1.53584 | 1.531 | 1.52612 | 1.52129
[2], x1 = 0.491 | – | – | – | – | – | 1.53813 | 1.53317 | 1.52829 | 1.52338 | 1.51851
[2], x1 = 0.5425 | – | – | – | – | – | 1.5367 | 1.53172 | 1.52682 | 1.52186 | 1.51697
[2], x1 = 0.6479 | – | – | – | – | – | 1.53381 | 1.52879 | 1.52381 | 1.51876 | 1.51377
[2], x1 = 0.7553 | – | – | – | – | – | 1.53092 | 1.52581 | 1.52072 | 1.51554 | 1.5104
[2], x1 = 0.8748 | – | – | – | – | – | 1.52777 | 1.52252 | 1.51723 | 1.51185 | 1.50652
[2], x1 = 1 | – | – | – | – | – | 1.52455 | 1.51902 | 1.51346 | 1.50781 | 1.50223
